Measured values taken from patent US7678787B2, “Pyrrolobenzodiazepine pyridine carboxamides and derivatives as follicle-stimulating hormone receptor antagonists” (Wyeth, priority 2005, dated 2010).

Legend:
human FSH receptor = target: T1, human FSH receptor (Homo sapiens, UniProt P23945); assay: FSH receptor-dependent CRE-luciferase reporter gene assay (CHO FSH-R 6CRE-Luc cells); type: cell-based; details: dose-response format in presence of EC50 of purified human FSH; * n=3, ** n=2 averages
T1 construct: host or cells: CHO-K1 (CHO FSH-R 6CRE-Luc, 1D7 cells)
T1 sequence (P23945 18-695): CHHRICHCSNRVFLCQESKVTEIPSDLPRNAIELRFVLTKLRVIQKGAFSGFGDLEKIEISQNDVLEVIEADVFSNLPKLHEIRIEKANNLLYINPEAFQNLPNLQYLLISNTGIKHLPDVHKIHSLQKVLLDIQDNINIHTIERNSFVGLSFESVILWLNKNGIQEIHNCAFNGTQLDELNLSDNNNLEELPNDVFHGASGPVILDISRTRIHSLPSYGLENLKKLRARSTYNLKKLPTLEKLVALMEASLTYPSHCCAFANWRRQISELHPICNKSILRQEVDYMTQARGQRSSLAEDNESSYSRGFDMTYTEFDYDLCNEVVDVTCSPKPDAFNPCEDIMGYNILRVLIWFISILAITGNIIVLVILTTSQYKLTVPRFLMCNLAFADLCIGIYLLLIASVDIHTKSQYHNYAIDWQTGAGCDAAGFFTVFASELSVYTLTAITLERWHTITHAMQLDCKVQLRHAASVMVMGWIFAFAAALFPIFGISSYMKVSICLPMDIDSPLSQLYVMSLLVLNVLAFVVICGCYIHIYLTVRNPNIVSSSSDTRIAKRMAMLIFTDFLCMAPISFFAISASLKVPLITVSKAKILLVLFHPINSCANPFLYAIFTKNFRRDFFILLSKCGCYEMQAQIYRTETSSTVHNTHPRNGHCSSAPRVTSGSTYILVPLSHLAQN
Source text: FOLLICLE-STIMULATING HORMONE RECEPTOR-DEPENDENT CRE-LUCIFERASE REPORTER GENE ASSAY FOR THE IDENTIFICATION OF FOLLICLE-STIMULATING HORMONE (FSH) ANTAGONISTS
A Chinese hamster ovarian cell line that stably produces the human FSH receptor and a luciferase reporter gene regulated by cAMP response elements was used to identify and determine the relative potencies of human FSH receptor antagonists. See for example, Kelton, C. A., et al. Mol. Cell. Endocrinol. 89:141-151 (1992), Tilly, J. L., et al. Endocrinology 131:799-806(1992), and George, S. E., et al. J. Biomol. Screening 2:235-240 (1997).
Compound Vehicle: Stock compounds were solubilized in an appropriate vehicle, e.g., phosphate buffered saline (PBS) or dimethyl sulfoxide (DMSO), at 30 mM. The compounds subsequently were diluted in DMSO to working dilutions of 1 and 20 or 30 mM for 2-dose testing format and 1 μM-10 mM for dose-response format. The DMSO dilutions were diluted 500-fold in sterile growth medium [D-MEM/F-12 (GIBCO/BRL; Grand Island, N.Y.) containing 15 mM HEPES, 2 mM l-glutamine, pyridoxine hydrochloride, phenol red and 5% FETALCLONE® II (HyClone Laboratories, Inc; Logan, Utah), 0.2% DMSO, 100 units penicillin G/ml, and 100 μg streptomycin sulfate/ml (GIBCO/BRL)]. The concentration of the vehicle in each of the compound dilutions was the same.
Positive Controls: Purified human FSH (>98%) was purchased from Cortex Biochem, Inc. (San Leandro, Calif.) and 3-[(2S*,5R*)-5-{[2-(1H-Indol-3-yl)-ethylcarbamoyl]-methyl}-4-oxo-2-(5-phenylethynyl-thiophen-2-yl)-thiazolidin-3-yl]-benzamide (an FSH-R thiazolidinone antagonist) was prepared by processes described by R. A. Scheuerman et al. in U.S. Pat. No. 6,426,357 (Affymax).
The CHO FSH-R 6CRE-Luc cells (1D7 cells) were obtained from Affymax (Palo Alto, Calif.). These Chinese hamster ovary cells (CHO-K1) were engineered genetically to stably express the recombinant human FSH receptor gene and a luciferase reporter gene under the regulation of 6 copies of a cAMP response element. The cells were plated one day prior to treatment into 96-well white opaque plates at a density of 50,000 cells/100 μl/well in growth medium. On the day of treatment, the growth medium was removed from the wells by aspiration and 50 μl of fresh growth medium was added to each well. The cells were incubated at 37° C. in a humidified incubator with 5% CO2/95% air.
The treated cells were incubated for 4 hours at 37° C. in a humidified incubator with 5% CO2/95% air. At the end of the incubation period, luciferase activity was measured by chemiluminescence using a commercially available kit (LucScreen, Tropix, Inc., Bedford, Mass.) according to the manufacturer's specifications, except that Buffer 1 and Buffer 2 were mixed together in equal proportion prior to the addition of 100 μl of the combined reagents to each well. Chemiluminescence was detected using a luminometer (EG & G Berthold Microlumat LB 96 P, Wallac, Gaithersburg, Md.) with chemiluminescence measured for 1 sec/well. Background luminescence was measured for each well prior to the addition of the LucScreen reagent.
In the 96-well 2-dose format, each compound was tested in duplicate at each dose. […] One plate was used to test a maximum of 22 compounds.
The EC50 of purified human FSH alone was tested in triplicate with each test compound. The doses chosen to test each compound were extrapolated from the initial 2-dose screening process. Along with the test compounds, purified human FSH also was tested in a dose response (0.03, 0.1, 0.3, 1, 3, 10, and 30 ng/ml) for a positive control and quality control. One plate was used for 3 test compounds and the FSH positive control.
Luciferase activity is expressed as relative light units/sec/well. Luciferase activity in antagonist was compared to the appropriate negative and positive controls. For 2-dose testing, results are reported as luciferase activity and are expressed as percent inhibition of the response obtained from the EC50 of FSH.

hFSH-R = target: T2, hFSH-R (Homo sapiens, UniProt P23945); assay: cAMP accumulation (RIA) in CHO-3D2 cells (hFSH-R), hFSH-induced; type: cell-based; details: inhibition of cAMP accumulation induced by hFSH at EC20, CHO-3D2 cells
T2 construct: expressed in transfected cells; host or cells: CHO-3D2 cells (CHO-K1 parental line)
T2 sequence (P23945 18-695): T1 sequence (P23945 18-695)
Protocol: IN VITRO BIO-ASSAY OF AGONISTS AND ANTAGONISTS TO THE FSH RECEPTOR. SELECTIVITY AND DEPENDENCY OF AGONISTS AND ANTAGONISTS TO THE FSH RECEPTOR
Compound Vehicle: Stock compounds were solubilized in 100% DMSO (Sigma-Aldrich Chemical Co., St. Louis, Mo.) at a concentration of 30 mM. The compounds subsequently were diluted in sterile assay medium consisting of Opti-MEM® I (Invitrogen/Life Technologies, Carlsbad, Calif.) with 0.1% (w/v) BSA (Sigma-Aldrich) prior to use in the bio-assay. The final concentration of DMSO in the assay was 0.1%.
Plated cells are then incubated at 37° C. in a humidified 5% CO2/95% air atmosphere.
Assay: On the day of the assay, cells were washed three times with 100 μl/well of assay medium consisting of Opti-MEM® I (Invitrogen/Life Technologies) with 0.1% (w/v) BSA (Sigma-Aldrich). Medium was removed and 100 μl of assay medium was added to each well. Plates were incubated for an additional 30 minutes at 37° C. […] Reactions were terminated by the addition of 50 μl of 0.2N hydrochloric acid to each well and cAMP-accumulation was measured by radioimmunoassay (RIA) using a commercially available kit (Amersham Biosciences, Piscataway, N.J.).
All test compounds were evaluated in a dose-response paradigm ranging from 0.01 to 30 μM. Controls and test compounds were evaluated in quadruplicate in a 96-well format.
Along with the test compounds, FSH was run also as a postive control in the agonist mode using concentrations ranging from 0.1-1000 ng/ml.
Data were analyzed by one-way analysis of variance and significant differences between treatments and control determined by Least Significant Difference test.
Test compounds were compared to the effect of purified human FSH.

In the case of CC(O)c1ccccc1-c1ccc(C(=O)N2Cc3ccc(C(=O)NCc4cccnc4)n3Cc3ccccc32)cc1 (single isomer, unassigned; (+)) [Example 54], the IC50 (human FSH receptor) is reported as 0.317 µM and the IC50 (hFSH-R) is reported as 0.15 µM.

In the case of CC(O)c1ccccc1-c1ccc(C(=O)N2Cc3ccc(C(=O)NCc4cccnc4)n3Cc3ccccc32)cc1 (single isomer, unassigned; (-)) [Example 53], the IC50 (human FSH receptor) is reported as 0.159 µM and the IC50 (hFSH-R) is reported as 0.12 µM.

Work on Cc1cc(C(=O)N2Cc3ccc(C(=O)NCc4cccnc4)n3Cc3ccccc32)ccc1-c1ccccc1C(F)(F)F [Example 5] yielded an IC50 (human FSH receptor) of 13.8 µM and an IC50 (hFSH-R) of 1.5 µM.

In the case of COc1ccccc1-c1ccc(C(=O)N2Cc3ccc(C(=O)NCc4cccnc4Oc4ccccc4)n3Cc3ccccc32)cc1 [Example 7, 10-[(2′-METHOXY-1,1′-BIPHENYL-4-YL)CARBONYL]-N-[(2-PHENOXYPYRIDIN-3-YL)METHYL]-10,11-DIHYDRO-5H-PYRROLO[2,1-C][1,4]BENZODIAZEPINE-3-CARBOXAMIDE], the IC50 (human FSH receptor) is reported as 5.4 µM and the IC50 (hFSH-R) is reported as 0.7 µM.

Compound O=C(NCc1cccnc1)c1ccc2n1Cc1ccccc1N(C(=O)c1ccc(-c3ccccc3)cc1)C2 [Example 13] has an IC50 (human FSH receptor) of 2.8 µM and an IC50 (hFSH-R) of 0.7 µM.

CSc1ccccc1-c1ccc(C(=O)N2Cc3ccc(C(=O)NCc4cccnc4)n3Cc3ccccc32)cc1 [Example 14, 10-{[2′-(METHYLTHIO)-1,1′-BIPHENYL-4-YL]CARBONYL}-N-(PYRIDIN-3-YLMETHYL)-10,11-DIHYDRO-5H-PYRROLO[2,1-C][1,4]BENZODIAZEPINE-3-CARBOXAMIDE 0.67 HYDRATE] showed an IC50 (human FSH receptor) of 1.61 µM and an IC50 (hFSH-R) of 0.77 µM.

With Cc1cc(C(=O)N2Cc3ccc(C(=O)NCc4cccnc4)n3Cc3ccccc32)ccc1-c1ccccc1F [Example 20] the IC50 (human FSH receptor) was 3.7 µM and the IC50 (hFSH-R) was 1.3 µM.

For Cc1cc(C(=O)N2Cc3ccc(C(=O)NCc4cccnc4)n3Cc3ccccc32)ccc1-c1ccccc1Cl [Example 21], the IC50 (human FSH receptor) was 2.9 µM and the IC50 (hFSH-R) was 1 µM.

Compound Cc1cc(C(=O)N2Cc3ccc(C(=O)NCc4cccnc4)n3Cc3ccccc32)ccc1-c1ccc(Cl)cc1 [Example 24] has an IC50 (human FSH receptor) of 10.7 µM and an IC50 (hFSH-R) of 1.6 µM.

Work on CC(C)(C)OC(=O)c1ccccc1-c1ccc(C(=O)N2Cc3ccc(C(=O)NCc4cccnc4)n3Cc3ccccc32)cc1 [Example 64] yielded an IC50 (human FSH receptor) of over 30 µM and a melting point of 163 to 165 °C.

For O=C(O)c1ccccc1-c1ccc(C(=O)N2Cc3ccc(C(=O)NCc4cccnc4)n3Cc3ccccc32)cc1 [Example 65, 4′-{[3-{[(PYRIDIN-3-YLMETHYL)AMINO]CARBONYL}-5H-PYRROLO[2,1-C][1,4]BENZODIAZEPIN-10(11H)-YL]CARBONYL}-1,1′-BIPHENYL-2-CARBOXYLIC ACID], the IC50 (human FSH receptor) was over 30 µM and the melting point was 189 to 191 °C.

For CNC(=O)c1ccccc1-c1ccc(C(=O)N2Cc3ccc(C(=O)NCc4cccnc4)n3Cc3ccccc32)cc1 [Example 69], the IC50 (human FSH receptor) was 14.5 µM and the melting point was 221 to 224 °C.

For O=C(NCc1cccnc1)c1ccc2n1Cc1ccccc1N(Cc1ccc(-c3ccccc3)cc1)C2 [Example 73], the IC50 (human FSH receptor) was 2 µM and the melting point was 161 to 165 °C (dec.).

In the case of O=C(NCc1cccnc1)c1ccc2n1Cc1ccccc1N(C(=O)c1cccc(F)c1)C2 [Example 78], the IC50 (human FSH receptor) is reported as 18.1 µM and the melting point is reported as 101 °C.

With O=C(NCc1cccnc1)c1ccc2n1Cc1ccccc1N(C(=O)c1ccc(Cl)c(Cl)c1)C2 [Example 81] the IC50 (human FSH receptor) was 18.4 µM and the melting point was 192 °C.

With COc1ccc(C(=O)N2Cc3ccc(C(=O)NCc4cccnc4)n3Cc3ccccc32)cc1 [Example 89] the IC50 (human FSH receptor) was 12.2 µM and the melting point was 110 to 112 °C.

O=C(NCc1cccnc1)c1ccc2n1Cc1ccccc1N(C(=O)c1ccc(F)cc1)C2 [Example 93] gave an IC50 (human FSH receptor) of over 30 µM and a melting point of 171 to 173 °C.

Work on CC(C)(C)OC(=O)NCc1ccc(C(=O)N2Cc3ccc(C(=O)NCc4cccnc4)n3Cc3ccccc32)cc1 [Example 103] yielded an IC50 (human FSH receptor) of over 30 µM and a melting point of 171 °C.

Work on O=C(NCc1cccnc1)c1ccc2n1Cc1ccccc1N(C(=O)c1ccc(-c3ccncc3)cc1)C2 [Example 110] yielded an IC50 (human FSH receptor) of 7.65 µM and a melting point of 119 to 124 °C.

For O=C(NCc1cccnc1)c1ccc2n1Cc1ccccc1N(C(=O)c1ccc(-c3nccs3)cc1)C2 [Example 111], the IC50 (human FSH receptor) was 5.48 µM and the melting point was 178 to 179 °C.

For O=C(NCc1cccnc1)c1ccc2n1Cc1ccccc1N(C(=O)COc1ccc(Cl)cc1)C2 [Example 138], the IC50 (human FSH receptor) was 15.8 µM and the melting point was 169 to 171 °C.

In the case of Cc1cc(Cl)ccc1OCC(=O)N1Cc2ccc(C(=O)NCc3cccnc3)n2Cc2ccccc21 [Example 139], the IC50 (human FSH receptor) is reported as 9.86 µM and the melting point is reported as 168 °C.

Compound O=C(NCc1cccnc1)c1ccc2n1Cc1ccccc1N(C(=O)Cc1ccc(Cl)cc1)C2 [Example 142] has an IC50 (human FSH receptor) of 18.5 µM and a melting point of 83 °C.
